Measured values as given in US8455648B2, “1-(7-(hexahydropyrrolo [3,4-c] pyrrol-2 (1H)-yl) quinolin-4-yl) -3- (pyrazin-2-yl) urea derivatives and related compounds as glycogen synthase kinase 3 (GSK-3)” (Abbott GmbH & Co. KG, priority 2008, dated 2013).

Biological target: T1, human Glycogen Synthase Kinase-3 beta (hGSK-3β) (Homo sapiens, UniProt P49841)
T1 construct: purchased Upstate cell signaling solutions
Assay: Biochemical hGSK-3beta assay (33P-ATP phosphorylation of biotinylated peptide substrate)
Details: 10 μM ATP, 1 μM substrate, 30 minutes at room temperature; read-out: GSK-3β IC50
Method: Methods—Biochemical hGSK-3Beta Assay
Compounds were tested for their ability to inhibit human Glycogen Synthase Kinase-3 beta (hGSK-3β) to phosphorylate biotin-[…](pS)EDEEE. Compounds were incubated with 0.5 μCi 33P-ATP, 10 μM ATP, 0.0125U hGSK-3β (Upstate cell signaling solutions) and 1 μM substrate (biotin-[…](pS)EDEEE) in 50 mM HEPES, 10 mM MgCl2, […], 1 mM DTT, 0.0075% Triton, 2% DMSO (total volume 50 μL) for 30 minutes at room temperature. The incubation was stopped by addition of an equal volume of 100 mM EDTA, 4M NaCl. 80 μL of this mixture was added to streptavidin-coated Flashplates (PerkinElmer). Following a wash step, 33P incorporation was quantified on a MicroBeta microplate liquid scintillation counter (PerkinElmer). IC50s were determined by fitting a sigmoidal dose-response curve to the counts obtained at the different concentrations in GraphPad Prism.

T1 sequence (P49841 whole entry): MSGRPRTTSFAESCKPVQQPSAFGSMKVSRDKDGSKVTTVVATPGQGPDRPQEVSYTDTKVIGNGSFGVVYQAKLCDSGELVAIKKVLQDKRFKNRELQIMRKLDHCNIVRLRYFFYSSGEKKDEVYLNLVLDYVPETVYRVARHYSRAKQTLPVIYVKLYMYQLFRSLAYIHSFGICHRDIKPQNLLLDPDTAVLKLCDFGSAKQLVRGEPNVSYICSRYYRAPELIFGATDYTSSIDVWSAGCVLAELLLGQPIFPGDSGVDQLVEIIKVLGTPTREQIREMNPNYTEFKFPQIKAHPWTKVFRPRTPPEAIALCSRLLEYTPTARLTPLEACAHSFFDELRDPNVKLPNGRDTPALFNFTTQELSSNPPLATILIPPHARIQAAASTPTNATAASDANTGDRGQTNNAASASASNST

SMILES | IC50 [nM]
CC(C)(C)OC(=O)N1C[C@@H]2CN(c3ccc4c(NC(=O)Nc5cnccn5)ccnc4c3)C[C@@H]2C1 [Example 1, (3aR,6aS)-Tert-butyl 5-(4-(3-pyrazin-2-ylureido)quinolin-7-yl)-hexahydropyrrolo[3,4-c]pyrrole-2(1H)-carboxylate] | 100 to 10000
COc1ccc2c(NC(=O)Nc3cncc(N4C[C@H]5CN(C(=O)OC(C)(C)C)C[C@H]5C4)n3)ccnc2c1 [Example 3, (3aR,6aS)-tert-butyl 5-(6-(3-(7-methoxyquinolin-4-yl)ureido)pyrazin-2-yl)-hexahydropyrrolo[3,4-c]pyrrole-2(1H)-carboxylate] | 100 to 10000
O=C(Nc1cnccn1)Nc1ccnc2cc(N3C[C@@H]4C[C@H]3CN4)ccc12 [Example 7, 1-(7-((1S,4S)-2,5-Diazabicyclo[2.2.1]heptan-2-yl)quinolin-4-yl)-3-(pyrazin-2-yl)urea] | 100 to 10000

The next lines start with the values.

IC50 [nM] | SMILES
< 100 | COc1ccc2c(NC(=O)Nc3cccc(N4CC5COCC5C4)n3)ccnc2c1 (stereo not shown) [Example 9, 1-(6-(Dihydro-1H-furo[3,4-c]pyrrol-5(3H,6H,6aH)-yl)pyridin-2-yl)-3-(7-methoxyquinolin-4-yl)urea]
< 100 | COc1ccc2c(NC(=O)Nc3cccc(N4C[C@@H]5C[C@H]4CO5)n3)ccnc2c1 [Example 10, 1-(6-((1S,4S)-2-Oxa-5-azabicyclo[2.2.1]heptan-5-yl)pyridin-2-yl)-3-(7-methoxyquinolin-4-yl)urea]
100 to 10000 | CC(C)(C)OC(=O)N1C[C@@H]2C[C@H]1CN2c1ccc2nccc(NC(=O)Nc3cnccn3)c2c1 [Example 11, (1S,4S)-Tert-butyl 5-(4-(3-pyrazin-2-ylureido)quinolin-6-yl)-2,5-diazabicyclo[2.2.1]heptane-2-carboxylate]
100 to 10000 | O=C(Nc1cnccn1)Nc1ccnc2cc(N3CC4CCNC4C3)ccc12 (stereo not shown) [Example 12, 1-(7-(Hexahydropyrrolo[3,4-b]pyrrol-5(1H)-yl)quinolin-4-yl)-3-(pyrazin-2-yl)urea]
